Results on 25 compounds are retold here after patent publication US10450288B2, “Hydroxy formamide derivatives and their use” (GLAXOSMITHKLINE INTELLECTUAL PROPERTY (NO.2) LIMITED, priority 2014, dated 2019).

The test has as its system human cardiac fibroblasts. As to the kind of experiment: Cell-based inhibition assay of generation of procollagen I C-terminal propeptide (PICP), PICP ELISA. The settings on record: Cardiac fibroblast; human cardiac fibroblasts, crowding media, 24 to 48 hr, PICP ELISA of media; read-out: pIC50, PICP cellular inhibition assay (converted). On the procedure:
Cell-Based Inhibition Assay of Generation of Procollagen I C-Terminal Propeptide (PICP) and Mature Collagen:
An adaptation of the collagen deposition assay described by Chen, C. Z. C., et al., British Journal of Pharmacology, 2009, 158, 1196-1209 was used to examine effect of compounds on procollagen I processing and collagen deposition. In the adapted assay, human cardiac fibroblasts were utilized. Processing of procollagen I was determined by a PICP ELISA assay and deposition of mature collagen was determined by immunostaining.
Human cardiac fibroblasts were cultured and maintained until passage 6 in FGM-3 media (Lonza, #CC-3132) in a 37° C. humidified incubator with 5% CO2. They were then seeded in 96-well black wall, clear bottom plates at 10,000 to 15,000 cells per well in eagle's minimum essential media (EMEM, ATCC #30-2003) containing 10% fetal bovine serum (FBS, Life Technologies #10082147), 1% Glutamax (Life Technologies #35050061) and 1% Penicillin and Streptomycin (Life Technologies #15070063). These cultures were placed in 37° C. incubator. The next day, media were removed by aspiration and cells were rinsed with phosphate buffered saline. Crowding media (also called ficoll media) was prepared by adding 112.5 mg/ml of ficoll70 and 75 mg/ml ficoll400 (GE healthcare #17-0310-10 and 17-0300-10, respectively), 100 μM ascorbic acid, 1% Glutamax and 1% Penicillin and Streptomycin to EMEM media. Test compounds (dissolved in DMSO) were diluted into crowding media and then added to the cells. Final concentration of DMSO in crowding media was less than 0.3%. Cells were treated for 24 to 48 hr in a 37° C. incubator. At the end of the treatment period, cell media were collected. The level of PICP in the media were determined by a PICP ELISA assay (Quidel #8003) following the manufacturer's protocol. Potencies of test compounds were calculated by fitting PICP levels, relative to untreated controls, to log (inhibitor) vs. response equation using Graphpad Prism software 5.0 and expressed as pIC50.

Where only a bound is given, the exact number is not on record here.

Turning to `CCCCC[C@@H](C(=O)NCNC(=O)c1ccc(-c2cc(OCC)cc(C(=O)NCP(=O)(O)O)c2)o1)[C@@H](CC)N(O)C=O` [Example 100, ((3-ethoxy-5-(5-((((R)-2-((R)-1-(N-hydroxy-formamido)propyl)heptanamido)methyl)carbamoyl)furan-2-yl)benzamido)methyl) phosphonic acid], the IC50 is below 3.98 µM. In the case of `CCCCC[C@@H](C(=O)NCNC(=O)c1ccc(-c2ccc(C(=O)N(CC(=O)O)CC(=O)O)cc2)o1)[C@@H](CC)N(O)C=O` [Example 136, 2,2′-((4-(5-((((R)-2-((R)-1-(N-hydroxyformamido)propyl)heptanamido)methyl)carbamoyl)furan-2-yl)benzoyl)azanediyl)diacetic acid] it was below 3.98 µM. As to `CCCCC[C@H](CN(O)C=O)C(=O)NCNC(=O)c1ccc(-c2cccc(N(C)C)c2)o1` [Example 27, (R)-5-(3-(dimethylamino)phenyl)-N-((2-((N-hydroxyformamido)methyl)heptanamido)methyl) furan-2-carboxamide], the IC50 is below 3.98 µM. With `CCCCC[C@H](CN(O)C=O)C(=O)NCNC(=O)c1ccc(-c2cccc(OC(F)F)c2)o1` [Example 35, (R)-5-(3-(difluoromethoxy)phenyl)-N-((2-((N hydroxyformamido)methyl)heptanamido)methyl) furan-2-carboxamide], the IC50 is below 3.98 µM. In the case of `CCCCC[C@@H](C(=O)NCNC(=O)c1ccc(-c2ccc(C(=O)N[C@H](CC(=O)O)C(=O)O)cc2)o1)[C@@H](CC)N(O)C=O` [Example 133], the IC50 is below 3.98 µM. For `CC[C@H]([C@@H](CCc1ccc(F)cc1F)C(=O)NCNC(=O)c1ccc(-c2cc(OCC(=O)O)cc(C(=O)O)c2O)o1)N(O)C=O` [Example 118, 5-(carboxymethoxy)-3-(5-((((2R,3R)-2-(2,4-difluorophenethyl)-3-(N-hydroxyformamido)pentanamido)methyl)carbamoyl)furan-2-yl)-2-hydroxybenzoic acid] the value was below 3.98 µM; for `CCCCC[C@H](CN(O)C=O)C(=O)NCNC(=O)c1ccc(-c2cccc(SCC)c2)o1` [Example 103, (R)-5-(3-(ethylthio)phenyl)-N-((2-((N-hydroxyformamido)methyl)heptanamido)methyl)furan-2-carboxamide], below 3.98 µM; for `CCCCC[C@H](CN(O)C=O)C(=O)NCNC(=O)c1ccc(-c2cccc(C(=O)OC)c2)o1` [Example 16, (R)-methyl 3-(5-(((2-((N-hydroxyformamido)methyl)heptanamido)methyl)carbamoyl)furan-2-yl)benzoate], below 3.98 µM.

Take `CCCCC[C@@H](C(=O)NCNC(=O)c1ccc(-c2cccc(C(=O)N[C@@H](CC(=O)O)C(=O)O)c2)o1)[C@@H](CC)N(O)C=O` [Example 83, (S)-2-(3-(5-((((R)-2-((R)-1-(N-hydroxy-formamido)propyl)heptamido)methyl)carbamoyl)furan-2-yl)benzamido) succinic acid]: the IC50 is below 3.98 µM.

As for `CCCCC[C@@H](C(=O)NCNC(=O)c1ccc(-c2ccc(C(=O)O)c(O)c2)o1)[C@@H](CC)N(O)C=O` [Example 146, 2-hydroxy-4-(5-((((R)-2-((R)-1-(N-hydroxyformamido)propyl)heptanamido)methyl)carbamoyl)furan-2-yl)benzoic acid], the IC50 is below 3.98 µM. Turning to `CCCCC[C@H](CN(O)C=O)C(=O)NCNC(=O)c1ccc(-c2cccc(C(=O)O)c2C)o1` [Example 61, (R)-3-(5-(((2-((N-hydroxyformamido)methyl)heptanamido)methyl)carbamoyl)furan-2-yl)-2-methylbenzoic acid], the IC50 was below 3.98 µM. As for `CCCCC[C@@H](C(=O)NCNC(=O)c1ccc(-c2cc(OCC)cc(C(=O)N[C@@H](CCC(=O)O)C(=O)OC(C)(C)C)c2)o1)[C@@H](CC)N(O)C=O` [Example 45, (S)-5-(tert-butoxy)-4-(3-ethoxy-5-(5-((((R)-2-((R)-1-(N-hydroxyformamido)propyl)heptanamido)methyl)carbamoyl)furan-2-yl)benzamido)-5-oxopentanoic acid], the IC50 was below 3.98 µM. On to `CCCCC[C@H](CN(O)C=O)C(=O)NCNC(=O)c1ccc(-c2cccc(OC(C)C)c2)o1` [Example 25, (R)-N-((2-((N-hydroxyformamido)methyl)heptanamido)methyl)-5-(3-isopropoxyphenyl)furan-2-carboxamide], for which the IC50 is below 3.98 µM. With `CCCCC[C@H](CN(O)C=O)C(=O)NCNC(=O)c1ccc(-c2ccc(N)c(C(=O)O)c2)o1` [Example 64, (R)-2-amino-5-(5-(((2-((N-hydroxyformamido)methyl)heptanamido)methyl)carbamoyl)furan-2-yl)benzoic acid], the IC50 was below 3.98 µM.

Regarding `CCCCC[C@H](CN(O)C=O)C(=O)NCNC(=O)c1ccc(-c2cccc(SC)c2)o1` [Example 104, (R)-N-((2-((N-hydroxyformamido)methyl)heptanamido)methyl)-5-(3-(methylthio)phenyl)furan-2-carboxamide], the IC50 is below 3.98 µM. Consider `CCCCC[C@H](CN(O)C=O)C(=O)NCNC(=O)c1ccc(-c2cc(OC)ccc2OC)o1` [Example 53, (R)-5-(2,5-dimethoxyphenyl)-N-((2-((N-hydroxyformamido)methyl)heptanamido)methyl)furan-2-carboxamide], for which the IC50 is below 3.98 µM. As to `CCCCC[C@@H](C(=O)NCNC(=O)c1ccc(-c2ccc(C(=O)N[C@@H](CCC(=O)O)C(=O)O)c(OCC)c2)o1)[C@@H](CC)N(O)C=O` [Example 135, (S)-2-(2-ethoxy-4-(5-((((R)-2-((R)-1-(N-hydroxyformamido)propyl)heptanamido)methyl)carbamoyl)furan-2-yl)benzamido) pentanedioic acid], the IC50 is below 3.98 µM.

As to `CCOc1cc(-c2ccc(C(=O)NCNC(=O)[C@H](CCc3ccc4ccccc4c3)[C@@H](CC)N(O)C=O)o2)ccc1C(=O)N[C@@H](CC(=O)O)C(=O)O` [Example 117, (S)-2-(2-ethoxy-4-(5-((((2R,3R)-3-(N-hydroxyformamido)-2-(2-(naphthalen-2-yl)ethyl)pentana-mido)methyl)carbamoyl)furan-2-yl)benzamido) succinic acid], the IC50 is below 3.98 µM.

Take `CCCCC[C@H](CN(O)C=O)C(=O)NCNC(=O)c1ccc(-c2cccc(S(=O)(=O)NC(=O)CC)c2)o1` [Example 28, (R)-N-((2-((N-hydroxyformamido)methyl)heptanamido)methyl)-5-(3-(N-propionylsulfamoyl)phenyl)furan-2-carboxamide]: the IC50 is below 3.98 µM. As to `CCCCC[C@@H](C(=O)NCNC(=O)c1ccc(-c2ccc(C(=O)N[C@@H](CC(=O)O)C(=O)O)cc2)o1)[C@@H](CC)N(O)C=O` [Example 119, (S)-2-(4-(5-((((R)-2-((R)-1-(N-hydroxyformamido)propyl)heptanamido)methyl)carbamoyl)furan-2-yl)benzamido) succinic acid], the IC50 is below 3.98 µM. For the compound `CCCCC[C@@H](C(=O)NCNC(=O)c1ccc(-c2cc(OCC(=O)O)cc(P(=O)(O)O)c2)o1)[C@@H](CC)N(O)C=O` [Example 145, 2-(3-(5-((((R)-2-((R)-1-(N-hydroxyformamido)propyl)heptanamido)methyl)carbamoyl)furan-2-yl)-5-phosphonophenoxy) acetic acid], the IC50 was below 3.98 µM. Consider `CCCCC[C@@H](C(=O)NCNC(=O)c1ccc(-c2ccc(C(=O)NCP(=O)(O)O)cc2)o1)[C@@H](CC)N(O)C=O` [Example 143, ((4-(5-((((R)-2-((R)-1-(N-hydroxyformamido)propyl)heptanamido)methyl)carbamoyl)furan-2-yl)benzamido)methyl)phosphonic acid], for which the IC50 was below 3.98 µM.

Regarding `CCCCC[C@H](CN(O)C=O)C(=O)NCNC(=O)c1ccc(-c2ccc(F)c(C(=O)OC)c2)o1` [Example 51, (R)-methyl 2-fluoro-5-(5-(((2-((N-hydroxyformamido)methyl)heptanamido)methyl)carbamoyl)furan-2-yl)benzoate], the IC50 was below 3.98 µM. On to `CCCCC[C@@H](C(=O)NCNC(=O)c1ccc(-c2cc(OCC(N)=O)cc(C(=O)O)c2)o1)[C@@H](CC)N(O)C=O` [Example 131, 3-(2-amino-2-oxoethoxy)-5-(5-((((R)-2-((R)-1-(N-hydroxyformamido)propyl)heptanamido)methyl)carbamoyl)furan-2-yl)benzoic acid], for which the IC50 is below 3.98 µM.

With `CCCCC[C@@H](C(=O)NCNC(=O)c1ccc(-c2cccc(C(C)(C)C(=O)O)c2)o1)[C@@H](CC)N(O)C=O` [Example 67, 2-(3-(5-((((R)-2-((R)-1-(N-hydroxyformamido)propyl)heptanamido)methyl)carbamoyl)furan-2-yl)phenyl)-2-methylpropanoic acid], the IC50 was below 3.98 µM.
